For experiment [1], the system named is lung cancer and lymphoma. The note with it: models of lung cancer and lymphoma; cited from earlier work.
The test system of experiment [2] is M6PR. The experiment is described as follows: M6PR expression by flow cytometry in different melanoma cell lines treated with dabrafenib. Format: cell-based, human. The note with it: 16 hr, 1 μM or 5 μM. As to the method:
FIGS. 4A and 4B show WM35 cells resistant to PLX4720. […] Cell viability was measured in experimental replicates in MTT test after 2 and 4 days of treatment. Mean and SD are shown. FIG. 4B show the effect of Dabrafenib on the expression of M6PR. Indicated cells were treated with dabrafenib for 16 hr (1 μM or 5 μM) and M6PR expression was evaluated by flow cytometry. Mean and SD are shown. P values were calculated using two-sided Student's t-test; *-p<0.05; ** p<0.01; ***-p<0.001; ****-p<0.0001 from DMSO treated controls.
M6PR expression levels were detected by flow cytometry. Cells were incubated with Aqua dead cell staining kit (Thermo Fischer Scientific; Cat. no. L34957) for 15 min at 4° C., followed by staining with Alexa Fluor 647-conjugated mouse antibody specific for human IGF2R/M6PR (BD Biosciences; Cat. no. 565105; clone no. MEM-238) or its isotype (BD Biosciences; Cat. no. 557732; clone no. MOPC-21) at 4° C. for 20 minutes. Cells were fixed using 1% paraformaldehyde for 20 minutes at 4° C. before running them on LSR14. Data was analyzed by FlowJo software (Tree Star).

In experiment [3] the test system is BRAFV600E mutant melanoma. Conditions: patients with BRAFV600E mutant melanoma; cited from earlier work.

Regarding `CC(=O)O[C@H]1C(=O)[C@@]2(C)[C@H]([C@H](OC(=O)c3ccccc3)[C@]3(O)C[C@H](OC(=O)[C@H](O)[C@@H](NC(=O)c4ccccc4)c4ccccc4)C(C)=C1C3(C)C)[C@]1(OC(C)=O)CO[C@@H]1C[C@@H]2O` [paclitaxel], the “effect on anti-tumor effect of immunotherapy” value (from here on “effect on anti-tumor effect”) in experiment [1] is reported as “potentiate the anti-tumor effect of immunotherapy via up-regulation of M6PR on the tumor cell surface”.
For the compound `COc1cccc2c1C(=O)c1c(O)c3c(c(O)c1C2=O)C[C@@](O)(C(=O)CO)C[C@@H]3O[C@H]1C[C@H](N)[C@H](O)[C@H](C)O1` [doxorubicin], the “effect on anti-tumor effect” value in experiment [1] is recorded as “potentiate the anti-tumor effect of immunotherapy via up-regulation of M6PR on the tumor cell surface”.
Take `N.N.[Cl][Pt][Cl]` [cisplatin]: the “effect on anti-tumor effect” value in experiment [1] was “potentiate the anti-tumor effect of immunotherapy via up-regulation of M6PR on the tumor cell surface”.
With `CC(C)(C)c1nc(-c2cccc(NS(=O)(=O)c3c(F)cccc3F)c2F)c(-c2ccnc(N)n2)s1` [dabrafenib], in experiment [2], the “expression of M6PR” value is on record as “substantial up-regulation of the receptor”. Besides, the clinical responses result in experiment [3] is “impressive clinical responses”.

The values are drawn from patent US20220125839A1, “COMBINATION OF T-CELL THERAPY AND TARGETED THERAPY FOR TREATING THERAPY-RESISTANT MELANOMA WITH MUTATIONS IN THE BRAF GENE” (H. LEE MOFFITT CANCER CENTER AND RESEARCH INSTITUTE, INC., priority 2019, published 2022).
